From US7271198B2, “Method of treating autoimmune diseases” (Wake Forest University, priority 2000, dated 2007)

Experiments:
IL-10 protein = IL-10 protein secretion by MRL/lpr splenocytes; format: cell-based, mouse; conditions: MRL/lpr splenocytes stimulated by LPS, Con A, or LPS+IFN-γ, 72 hr
Description: To determine the effect of TSA and SAHA on IL-10 protein secretion, MRL/lpr splenocytes were stimulated with Con A, LPS, or LPS+IFN-γ for 72 hr in the absence or presence of TSA or SAHA. As shown in the FIG. 11D, splenocytes stimulated with Con A, LPS, or LPS+IFN-γ secreted a mean (±SEM) of 31.8±4.5, 32.3±1.9, and 34.8±4.9 pg/ml, respectively, of IL-10 protein.

iNOS mRNA = iNOS mRNA induction in MRL/lpr splenocytes; format: cell-based, mouse; conditions: splenocytes from 10 wk old mice, LPS and IFN-γ 24 hr
Description: Excessive production of nitric oxide (NO) is crucial to the initiation and maintenance of glomerulonephritis in MRL/lpr mice. Pharmacologic inhibition of NO synthesis in MRL/lpr mice abrogates disease progression. In examining whether HDIs could suppress inducible nitric oxide synthetase (iNOS), splenocytes from 10 wk old mice were stimulated in the presence or absence of TSA or SAHA with LPS and IFN-γ for 24 hr. […] To determine whether HDIs could suppress nitric oxide secretion by mesangial cells, mesangial cells were stimulated with LPS ([…]) in the presence of vehicle or TSA for 24 hr. The supernatant from the cell culture was assayed for nitric oxide.

cell-surface CD154 = experiment: Flow cytometry of cell-surface CD154 and CD3-ε on SLE T cells; format: cell-based, human
Experimental: In agreement with previous work (M. Koshy, et al., J. Clin. Invest. 98, 826 (1996); A. Desai-Mehta, et al., J. Clin. Invest. 97, 2063 (1996)), we find that an increased proportion of SLE T cells express cell-surface CD154 compared to normal and disease controls. To determine if TSA-dependent down-regulation of CD154 mRNA reduces surface expression of CD154, SLE T cells were treated for 18 hr with TSA and the proportion of CD154^+ cells quantified by flow cytometry (E. Hagiwara, et al., Arthritis Rheum. 39, 379 (1996)). […] T cells were stained with saturating concentrations of monoclonal FITC-anti-CD3 and PE anti-CD154 antibodies (Caltag Labs, Burlingame, Calif.) for 30 min at 4° C., and the proportion of cells expressing CD3-ε and CD154 was quantified. In sum, these experiments reveal that TSA down-regulates both CD154 mRNA and protein expression, but not GAPDH mRNA or CD3-ε expression, in SLE T cells.

IL-6 protein = IL-6 protein secretion by MRL/lpr splenocytes; format: cell-based, mouse; conditions: splenocytes with LPS and IFN-γ 72 hr; stimulated control 34.4±7.6 pg/ml; p=0.002
Experimental: In determining whether TSA or SAHA down-regulate IL-6 mRNA content, splenocytes from 24-wk MRL/lpr mice were treated with increasing concentrations of TSA for 18 hr. […] TSA decreased IL-6 transcript at a concentration of 100 ng/ml and exerted maximal inhibition at 300 ng/ml. To address whether TSA and SAHA down-regulate LPS- and IFN-γ induced IL-6 transcript levels, splenocytes from younger MRL/lpr mice were treated in the absence or presence of TSA or SAHA for 18 hr before LPS and IFN-γ stimulation for 6 or 18 hr. […] Next, the effect of TSA and SAHA on IL-6 protein secretion in stimulated splenocytes was measured (FIG. 10D). When splenocytes were cultured with LPS and IFN-γ for 72 hr, there was a mean (±SEM) 34.4±7.6 pg/ml of IL-6 protein secretion.

IFN-γ transcript = experiment: RT-PCR of IFN-γ transcript in SLE T cells; format: cell-based, human
Experimental: T cells were cultured in the absence or presence of increasing concentrations of TSA for 18 hr in 5% CO2 at 37° C. RNA was isolated, cDNAs were prepared, and RT-PCR was performed as previously detailed (D. Laxminarayana, et al., J. Clin. Invest. 92, 2207 (1993)). The primers used were: […]
The reaction mixtures were subjected to 30 cycles of denaturation (94° C., 1 min) and annealing for 1 min at 53° C. (CD154), […] (GAPDH) and 55° C. (IL-10 and IFN-γ). Extension was for 2 min at 72° C. with a final extension of 7 min at 72° C. using a DNA thermal cycler (Perkin-Elmer).
Low production of IFN-γ by SLE T cells may reflect down-regulation of gene expression (B. S. Handwerger, et al., in Lupus: Molecular and Cellular Pathogenesis, G. M. Kammer and G. C. Tsokos, Eds. (Humana Press, Totowa, N.J., 1999), chap. 21; E. Hagiwara, et al., Arthritis Rheum. 39, 379 (1996)). To establish whether TSA can up-regulate IFN-γ expression, SLE T cells were treated for 18 hr in the absence or presence of TSA. During that time, TSA induced a three-fold increase in IFN-γ transcript compared to untreated cells (FIG. 3A, lanes 1 and 7, and FIG. 3B). When T cells were activated with PMA+IO in the absence of TSA, peak IFN-γ transcript expression increased 13-fold at 1 hr over basal levels relative to GAPDH transcript, but waned thereafter. […]

CC(/C=C/C(=O)NO)=C\[C@@H](C)C(=O)c1ccc(N(C)C)cc1 [TSA, Trichostatin A]
IL-10 protein secretion (IL-10 protein): no detectable IL-10 secretion
iNOS mRNA induction (iNOS mRNA): able to suppress iNOS mRNA induction
new population of CD154+ cells induced by PMA+IO (cell-surface CD154; SLE T cells pretreated with TSA 1000 ng/ml 18 hr, PMA+IO 24 hr, P=0.005): completely inhibited
CD3-ε expression (cell-surface CD154; SLE T cells, with or without TSA and PMA+IO): remained stable
reduction of cell-surface CD154+ cells (cell-surface CD154; non-activated SLE T cells, TSA, over 24 hr, vs untreated): did not effect any significant reduction
IL-6 protein secretion (IL-6 protein): no detectable IL-6 protein secretion
peak increase in IFN-γ mRNA over untreated cells relative to GAPDH (IFN-γ transcript; SLE T cells activated with PMA+IO in presence of TSA, at 6 hr, P=0.031): 37 fold
increase in IFN-γ transcript compared to untreated cells (IFN-γ transcript; SLE T cells, TSA 18 hr, not activated): three-fold
